Results published in patent US20210024542A1 (Torcept Therapeutics, Inc., priority 2018, published 2021).

Columns and labels:
Format in all cases: cell-based, human
G-402 = test: OncoPanel cell proliferation assay, G-402; details: for Relative cell count (%) Mean: G-402
Procedure: (§1) Cells were grown in RPMI 1640, 10% FBS, 2 mM L-alanyl-L-glutamine, 1 mM Na pyruvate, or a special medium. Cells were seeded into 384-well plates and incubated in a humidified atmosphere of 5% CO2 at 37° C. Compounds were added the day following cell seeding. At the same time, a time zero untreated cell plate was generated. After a 3-day incubation period, cells were fixed and stained to allow fluorescence imaging of nuclei. Compounds (1 mM stock solutions) were serially diluted in half-log steps from the highest test concentration ([…]), and assayed over 10 concentrations with a maximum assay concentration of 0.1% DMSO. Automated fluorescence microscopy was carried out using a Molecular Devices ImageXpress Micro XL high-content imager, and images were collected with a 4× objective. 16-bit TIFF images were acquired and analyzed with MetaXpress 5.1.0.41 software.
(§2) Cell proliferation was measured by the fluorescence intensity of an incorporated nuclear dye. The output is referred to as the relative cell count, where the measured nuclear intensity is transformed to percent of control (POC) using the following formula: […]
(§3) Cellular response parameters were calculated using nonlinear regression to a sigmoidal single-site dose response model:
(§4) Where y is a response measured at concentration x, A and B are the lower and upper limits of the response, C is the concentration at the response midpoint (EC50), and D is the Hill Slope (Ref. 1).
(§5) EC50 is the test compound concentration at the curve inflection point or half the effective response (parameter C of the fitted curve solution). GI50 is the concentration needed to reduce the observed growth by half (midway between the curve maximum and the time zero value). “Cell Count Activity Area” is an estimate of the integrated area above the curve (Barretina, et al. The Cancer Cell Line Encyclopedia enables predictive modelling of anticancer drug sensitivity. Nature 483: 603-607). […] In rare instances, values <0 or >10 may be observed. […] Curve-fitting, calculations, and report generation was performed using a custom data reduction engine and MathIQ based software (AIM).

NCIH446 = test: OncoPanel cell proliferation assay, NCIH446; details: for Relative cell count (%) Mean: NCIH446
Procedure: as §1, §2, §3, §4, §5

SW684 = test: OncoPanel cell proliferation assay, SW684; details: for Relative cell count (%) Mean: SW684
Procedure: as §1, with “Cells” for “Cells were grown in RPMI 1640, 10% FBS, 2 mM L-alanyl-L-glutamine, 1 mM Na pyruvate, or a special medium. Cells”
as §2, §3, §4
(§6) GI50 is the concentration needed to reduce the observed growth by half (midway between the curve maximum and the time zero value). […] In rare instances, values <0 or >10 may be observed. […] Curve-fitting, calculations, and report generation was performed using a custom data reduction engine and MathIQ based software (AIM).

A101D = test: OncoPanel cell proliferation assay, A101D
Procedure: as §1, §2, §3, §4, §5

A388 = test: OncoPanel cell proliferation assay, A388; details: for Relative cell count (%) Mean: A388
Procedure: as §1, with “Cells” for “Cells were grown in RPMI 1640, 10% FBS, 2 mM L-alanyl-L-glutamine, 1 mM Na pyruvate, or a special medium. Cells”
as §2, §3, §4, §6

CML-T1 = test: OncoPanel cell proliferation assay, CML-T1; details: for Relative cell count (%) Mean: CML-T1
Procedure: as §1, §2, §3, §4, §5

Structure (SMILES): CO[C@H]1C[C@@H]2CC[C@@H](C)[C@@](O)(O2)C(=O)C(=O)N2CCCC[C@H]2C(=O)O[C@H]([C@H](C)C[C@@H]2C[C@@H]3C[C@H]2C[C@H]3O)CC(=O)[C@H](C)/C=C(\C)[C@@H](O)[C@@H](OC)C(=O)[C@H](C)C[C@H](C)/C=C/C=C/C=C/1C [Formula I, 37R-hydroxynorbornylrapamycin]
- Cell Count Activity Area (G-402; G-402, scale 0-10): 4.95
- Relative cell count (%) Mean (G-402; 1.00E+00 microM): 31.5%
- Relative cell count (%) Mean (G-402; 1.00E−01 microM): 37.2%
- Relative cell count (%) Mean (G-402; 1.00E−02 microM): 41.4%
- Relative cell count (%) Mean (G-402; 1.00E−03 microM): 49.2%
- Relative cell count (%) Mean (G-402; 1.01E−04 microM): 70.9%
- Relative cell count (%) Mean (G-402; 3.16E−01 microM): 34.9%
- Relative cell count (%) Mean (G-402; 3.17E−02 microM): 46.6%
- Relative cell count (%) Mean (G-402; 3.17E−03 microM): 48.8%
- Relative cell count (%) Mean (G-402; 3.18E−04 microM): 54.9%
- Relative cell count (%) Mean (G-402; 3.18E−05 microM): 89.9%
- EC50 (G-402; Homo sapiens, 72 h, G-402, 3-day incubation, read-out: Cell Count EC50): 0.133 nM
- GI50 (G-402; Homo sapiens, 72 h, G-402, 3-day incubation, read-out: Cell Count GI50): 0.332 nM
- IC50 (G-402; Homo sapiens, 72 h, G-402, 3-day incubation, read-out: Cell Count IC50): 0.956 nM
- EC50 (NCIH446; Homo sapiens, NCI-H446, 72 h, NCIH446, 3-day incubation, read-out: Cell Count EC50): 1.37 nM
- GI50 (NCIH446; Homo sapiens, NCI-H446, 72 h, NCIH446, 3-day incubation, read-out: Cell Count GI50): 75.5 nM
- IC50 (NCIH446; Homo sapiens, NCI-H446, 72 h, NCIH446, 3-day incubation, read-out: Cell Count IC50): > 1000 nM
- Cell Count Activity Area (NCIH446; NCIH446, scale 0-10): 1.96
- Relative cell count (%) Mean (NCIH446; 1.00E+00 microM): 69.7%
- Relative cell count (%) Mean (NCIH446; 1.00E−01 microM): 77.0%
- Relative cell count (%) Mean (NCIH446; 1.00E−02 microM): 75.9%
- Relative cell count (%) Mean (NCIH446; 1.00E−03 microM): 88.1%
- Relative cell count (%) Mean (NCIH446; 1.01E−04 microM): 102.8%
- Relative cell count (%) Mean (NCIH446; 3.16E−01 microM): 71.2%
- Relative cell count (%) Mean (NCIH446; 3.17E−02 microM): 85.0%
- Relative cell count (%) Mean (NCIH446; 3.17E−03 microM): 82.3%
- Relative cell count (%) Mean (NCIH446; 3.18E−04 microM): 100.1%
- Relative cell count (%) Mean (NCIH446; 3.18E−05 microM): 99.4%
- EC50 (SW684; Homo sapiens, 72 h, SW684, 3-day incubation, read-out: Cell Count EC50): 0.477 nM
- GI50 (SW684; Homo sapiens, 72 h, SW684, 3-day incubation, read-out: Cell Count GI50): 0.286 nM
- IC50 (SW684; Homo sapiens, 72 h, SW684, 3-day incubation, read-out: Cell Count IC50): 21.1 nM
- Cell Count Activity Area (SW684; SW684, scale 0-10): 3.93
- Relative cell count (%) Mean (SW684; 1.00E+00 microM): 44.1%
- Relative cell count (%) Mean (SW684; 1.00E−01 microM): 51.0%
- Relative cell count (%) Mean (SW684; 1.00E−02 microM): 55.0%
- Relative cell count (%) Mean (SW684; 1.00E−03 microM): 68.8%
- Relative cell count (%) Mean (SW684; 1.01E−04 microM): 89.3%
- Relative cell count (%) Mean (SW684; 3.16E−01 microM): 47.1%
- Relative cell count (%) Mean (SW684; 3.17E−02 microM): 52.7%
- Relative cell count (%) Mean (SW684; 3.17E−03 microM): 60.7%
- Relative cell count (%) Mean (SW684; 3.18E−04 microM): 77.8%
- Relative cell count (%) Mean (SW684; 3.18E−05 microM): 91.9%
- Relative cell count (%) Mean (A101D; 1.00E+00 microM): 50.8%
- Relative cell count (%) Mean (A101D; 1.00E−01 microM): 57.8%
- Relative cell count (%) Mean (A101D; 1.00E−02 microM): 54.7%
- Relative cell count (%) Mean (A101D; 1.00E−03 microM): 66.8%
- Relative cell count (%) Mean (A101D; 1.01E−04 microM): 90.7%
- Relative cell count (%) Mean (A101D; 3.16E−01 microM): 52.8%
- Relative cell count (%) Mean (A101D; 3.17E−02 microM): 58.0%
- Relative cell count (%) Mean (A101D; 3.17E−03 microM): 61.9%
- Relative cell count (%) Mean (A101D; 3.18E−04 microM): 78.1%
- Relative cell count (%) Mean (A101D; 3.18E−05 microM): 95.8%
- EC50 (A101D; Homo sapiens, 72 h, 3-day incubation, read-out: Cell Count EC50): 0.322 nM
- GI50 (A101D; Homo sapiens, 72 h, 3-day incubation, read-out: Cell Count GI50): 0.999 nM
- IC50 (A101D; Homo sapiens, 72 h, 3-day incubation, read-out: Cell Count IC50): > 1000 nM
- Cell Count Activity Area (A101D; scale 0-10): 3.52
- Cell Count Activity Area (A388; A388, scale 0-10): 3.22
- Relative cell count (%) Mean (A388; 1.00E+00 microM): 53.8%
- Relative cell count (%) Mean (A388; 1.00E−01 microM): 62.3%
- Relative cell count (%) Mean (A388; 1.00E−02 microM): 63.3%
- Relative cell count (%) Mean (A388; 1.00E−03 microM): 69.1%
- Relative cell count (%) Mean (A388; 1.01E−04 microM): 77.9%
- Relative cell count (%) Mean (A388; 3.16E−01 microM): 59.0%
- Relative cell count (%) Mean (A388; 3.17E−02 microM): 59.6%
- Relative cell count (%) Mean (A388; 3.17E−03 microM): 67.1%
- Relative cell count (%) Mean (A388; 3.18E−04 microM): 76.3%
- Relative cell count (%) Mean (A388; 3.18E−05 microM): 89.9%
- EC50 (A388; Homo sapiens, 72 h, A388, 3-day incubation, read-out: Cell Count EC50): 0.19 nM
- GI50 (A388; Homo sapiens, 72 h, A388, 3-day incubation, read-out: Cell Count GI50): 50.7 nM
- IC50 (A388; Homo sapiens, 72 h, A388, 3-day incubation, read-out: Cell Count IC50): > 1000 nM
- Cell Count Activity Area (CML-T1; CML-T1, scale 0-10): 4.54
- Relative cell count (%) Mean (CML-T1; 1.00E+00 microM): 36.5%
- Relative cell count (%) Mean (CML-T1; 1.00E−01 microM): 42.6%
- Relative cell count (%) Mean (CML-T1; 1.00E−02 microM): 46.7%
- Relative cell count (%) Mean (CML-T1; 1.00E−03 microM): 55.6%
- Relative cell count (%) Mean (CML-T1; 1.01E−04 microM): 83.6%
- Relative cell count (%) Mean (CML-T1; 3.16E−01 microM): 33.1%
- Relative cell count (%) Mean (CML-T1; 3.17E−02 microM): 42.3%
- Relative cell count (%) Mean (CML-T1; 3.17E−03 microM): 49.5%
- Relative cell count (%) Mean (CML-T1; 3.18E−04 microM): 65.3%
- Relative cell count (%) Mean (CML-T1; 3.18E−05 microM): 90.6%
- EC50 (CML-T1; Homo sapiens, 72 h, CML-T1, 3-day incubation, read-out: Cell Count EC50): 0.317 nM
- GI50 (CML-T1; Homo sapiens, 72 h, CML-T1, 3-day incubation, read-out: Cell Count GI50): 0.998 nM
- IC50 (CML-T1; Homo sapiens, 72 h, CML-T1, 3-day incubation, read-out: Cell Count IC50): 2.51 nM
